According to patent US7632654B2, “Means and methods for detecting endoglycosidase activity” (Academisch Ziekenhuis bij de Universiteit van Amsterdam, priority 2002, dated 2009):

Assays:
[1] = tested on: bacterial chitinase, 39 and 50 kDa forms of human and mouse chitotriosidase and AMCases, fetal calf serum chitinase; assay: CHIS versus 4-MU-chitobiose as substrate for other chitinases; format: biochemical; settings: in all cases (not shown)
Method: For this purpose, assays were performed with CHIS and 4-MU-chitobiose as substrate with bacterial chitinase (Sigma), purified recombinant 39 and 50 kDa forms of human and mouse chitotriosidase and AMCases and purified fetal calf serum chitinase.

chitotriosidase = biological target: T1, chitotriosidase (Homo sapiens, UniProt Q13231); assay: incubation of pure chitotriosidase with 4-MU-hexosamine and PNP-chitobiose (hydrolysis/transglycosylation); format: biochemical; settings: substrate alone, 50 microM
T1 construct: made in house
Method: FIG. 2. […] Activity of 50 kDa recombinant human chitotriosidase towards PNPchitobiose, 4MU-hexosamine and a mixture of both substrates. Panel A: incubation 1. Enzyme was incubated with 50 microM PNPchitobiose and the reaction was stopped at indicated time points by adding excess of 0.2 M glycine-NaOH @H1O.3). Release of the hydrolysis product p-nitrophenol was determined spectrometrically at […]. Panel B: incubation 2. Enzyme was incubated with 50 microM 4MU-hexosamine and the reaction was stopped at indicated time points by adding excess of 0.2 M glycine-NaOH (pHlO.3). Release of the hydrolysis product 4-methyl-umbelliferone was determined fluorometrically (excitation at 366 nm; emission at 445 nm). Panel C: incubation 3. Enzyme was incubated with 50 microM PNPchitobiose and 50 microM 4MU-hexosamine and the reaction was stopped at indicated time points by adding excess of 0.2 M glycine-NaOH (pHlO.3). Release of hydrolysis products was measured spectrometrically and fluoremetrically.
FIG. 2A. Transglycosylation by chitotriosidase. Explanation for the outcome of the experiment depictured in FIG. 2. Chitotriosidase is able to remove chitobiose-unit from PNP-chitobiose, resulting in release of PNP that is spectrometrically detected. (FIG. 2 panel A). […]

plasma chitotriosidase [2] = assay: plasma chitotriosidase in Gaucher patients following therapeutic interventions; format: in vivo, human; settings: first patients in Europe treated, measured with 4MU-chitotriose, FIG. 7
Excerpt: Besides its use in the confirmation of the diagnosis of Gaucher disease, the measurement of plasma chitotriosidase activity is extremely valuable in decision making regarding initiation of costly therapeutic intervention and optimizing treatment dosing regimens (Aerts et al, 1997; Young et al., 1997; Cox et al., 2000). […] It can be seen that onset of disease can be accurately monitored by monitoring plasma enzyme level. Initiation of therapy results in reductions of the plasma marker of the pathological Gaucher cells. […] In many countries regular measurement of plasma chitotriosidase is now used to monitor response to therapy and increases in plasma chitotriosidase levels are used as a criterion to initiate treatment. The plasma chitotriosidase now plays an important role in the clinical management of Gaucher patients. The European Working Group on Gaucher Disease has recommended its use.
FIG. 7. […] Responses in plasma enzyme level in the first patient in Europe treated with enzyme replacement therapy (aiglucerase) and the first patient in Europe treated with substrate deprivation therapy (butyldeoxynojirimycin). Enzyme activities were measured with 4MU-chitotriose as described in Hollak et al., 1994.

plasma chitotriosidase [3] = assay: plasma chitotriosidase in sarcoidosis patients treated with corticosteroids; format: in vivo, human; settings: sarcoidosis patient, orally 25 mg
Method: Sarcoidosis is treated by administration of corticosteroids. Determination of optimal drug dosage is critical but unfortunately also complicated. It was studied whether plasma chitotriosidase levels change upon treatment. […] However, tapering of the dose to 5 mg per day after 17 weeks was followed by recurrence of disease activity while chitotriosidase activity increment preceded the worsening of symptoms. Another interesting finding concerns a patient that was treated with corticosteroid pulse therapy (1000 mg methyiprednisone for three days every 2 weeks). […] This was accompanied by marked clinical improvement.

CSF chitotriosidase = CSF chitotriosidase in an MS patient under treatment; format: in vivo, human; settings: one MS patient
Method: Multiple sclerosis (MS) is a presumed T-cell mediated Thi type autoimmune disease. In the pathophysiology of multiple sclerosis (MS) an important role is envisioned for activated T-lymphocytes and macrophages. It is generally thought that macrophages and resident brain microglia are agents of the demyelization that occurs in MS. Chitotriosidase activity was determined in plasma and cerebral spine fluid (CSF) of MS patients. In CSF of patients, but not in plasma, chitotriosidase activity is clearly elevated in relation to manifestation of MS. In a MS patient receiving recombinant beta-1B interferon treatment a concomitant 10-fold reduction in CSF chitotriosidase was noted by us. These findings indicate that chitotriosidase measurement is useful to assess the presence of activated phagocytes in the brain of MS patients and correction therein following treatment.

serum chitotriosidase = serum chitotriosidase after G-CSF or GM-CSF in healthy volunteers; format: in vivo, human; settings: parallel to lactoferrin
Method: Neutrophil Activation. To test the potential of chitotriosidase as a marker for the release of specific granules of neutrophils, we examined samples obtained in earlier studies in which granulocyte colony stimulating factor (G-CSF) or granulocyte-macrophage colony stimulating factor (GM-CSF) were administered to healthy volunteers. In these experiments it was previously shown that degranulation of the specific granules of neutrophils occurs. Neutrophils release their specific granule content after 2 hours after G-CSF injection, as detectable by the appearance of lactoferrin in the circulation. […] The increase in lactoferrin and chitotriosidase is not due to an increase in neutrophil cell number, because these levels peak later in time, after about 12 hours. A second peak in lactoferrin and chitotriosidase levels is seen after […] after G-CSF injection.

T1 sequence (Q13231 22-466): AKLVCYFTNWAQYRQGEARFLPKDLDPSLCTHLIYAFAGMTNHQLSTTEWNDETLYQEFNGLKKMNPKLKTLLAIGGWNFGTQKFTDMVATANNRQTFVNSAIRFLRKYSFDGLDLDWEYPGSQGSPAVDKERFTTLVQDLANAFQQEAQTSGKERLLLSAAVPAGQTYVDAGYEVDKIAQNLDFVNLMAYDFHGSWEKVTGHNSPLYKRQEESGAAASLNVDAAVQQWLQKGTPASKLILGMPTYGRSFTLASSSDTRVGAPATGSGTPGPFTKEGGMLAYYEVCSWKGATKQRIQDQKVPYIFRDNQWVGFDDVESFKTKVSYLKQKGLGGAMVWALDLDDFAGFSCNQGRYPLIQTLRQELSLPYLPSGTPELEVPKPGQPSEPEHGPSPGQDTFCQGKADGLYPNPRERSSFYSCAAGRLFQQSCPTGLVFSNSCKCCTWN

## CC(=O)N[C@H]1[C@H](Oc2ccc3c(C)cc(=O)oc3c2)O[C@H](CO)[C@@H](O[C@@H]2O[C@H](CO)[C@@H](O)[C@H](O)[C@H]2NC(C)=O)[C@@H]1O [4-MU-chitobiose, reference compound]
[1]
  substrate behaviour with other chitinases: showed apparent substrate inhibition at sub saturating concentrations

## CC(=O)N[C@H]1C(Oc2ccc3c(C)cc(=O)oc3c2)O[C@H](CO)[C@@H](O)[C@@H]1O (some centres unmarked) [4-MU-hexosamine, 4-methylumbelliferyl-N-acetyiglucosamine]
chitotriosidase
  substrate of chitotriosidase (release of 4-MU or PNP): no substrate

## CC(=O)N[C@H]1[C@H](Oc2ccc([N+](=O)[O-])cc2)O[C@H](CO)[C@@H](O[C@@H]2O[C@H](CO)[C@@H](O)[C@H](O)[C@H]2NC(C)=O)[C@@H]1O [PNP-chitobiose]
chitotriosidase
  substrate of chitotriosidase (release of 4-MU or PNP): is a substrate

## CCCCN1C[C@H](O)[C@@H](O)[C@H](O)[C@H]1CO [butyldeoxynojirimycin, reference compound]
Plasma chitotriosidase [2]
  response in plasma chitotriosidase: Corrections in plasma chitotriosidase

## C[C@]12C=CC(=O)C=C1CC[C@@H]1[C@@H]2C(=O)C[C@@]2(C)[C@H]1CC[C@]2(O)C(=O)CO [prednisone]
Plasma chitotriosidase [3]
  chitotriosidase activity upon treatment: markedly decreased

B1: recombinant beta-1B interferon: recombinant beta-1B interferon treatment of an MS patient (protein, UniProt P01574 22-187, looked up, variant C17S)
Interferon beta: MSYNLLGFLQRSSNFQSQKLLWQLNGRLEYCLKDRMNFDIPEEIKQLQQFQKEDAALTIYEMLQNIFAIFRQDSSSTGWNETIVENLLANVYHQINHLKTVLEEKLEKEDFTRGKLMSSLHLKRYYGRILHYLKAKEYSHCAWTIVRVEILRNFYFINRLTGYLRN
modifications: lacks N-terminal Met, non-glycosylated
notes: recombinant beta-1B interferon treatment of an MS patient
CSF chitotriosidase
  reduction in CSF chitotriosidase: 10 fold

B2: aiglucerase: enzyme replacement therapy for Gaucher disease (protein, UniProt P04062 40-536, looked up)
Lysosomal acid …: ARPCIPKSFGYSSVVCVCNATYCDSFDPPTFPALGTFSRYESTRSGRRMELSMGPIQANHTGTGLLLTLQPEQKFQKVKGFGGAMTDAAALNILALSPPAQNLLLKSYFSEEGIGYNIIRVPMASCDFSIRTYTYADTPDDFQLHNFSLPEEDTKLKIPLIHRALQLAQRPVSLLASPWTSPTWLKTNGAVNGKGSLKGQPGDIYHQTWARYFVKFLDAYAEHKLQFWAVTAENEPSAGLLSGYPFQCLGFTPEHQRDFIARDLGPTLANSTHHNVRLLMLDDQRLLLPHWAKVVLTDPEAAKYVHGIAVHWYLDFLAPAKATLGETHRLFPNTMLFASEACVGSKFWEQSVRLGSWDRGMQYSHSIITNLLYHVVGWTDWNLALNPEGGPNWVRNFVDSPIIVDITKDTFYKQPMFYHLGHFSKFIPEGSQRVGLVASQKNDLDAVALMHPDGSAVVVVLNRSSKDVPLTIKDPAVGFLETISPGYSIHTYLWRRQ
modifications: mannose-terminated glycans
notes: enzyme replacement therapy for Gaucher disease
Plasma chitotriosidase [2]
  response in plasma chitotriosidase: Corrections in plasma chitotriosidase

B3: G-CSF: granulocyte colony stimulating factor (protein, UniProt P09919 31-207, looked up)
Granulocyte …: TPLGPASSLPQSFLLKCLEQVRKIQGDGAALQEKLVSECATYKLCHPEELVLLGHSLGIPWAPLSSCPSQALQLAGCLSQLHSGLFLYQGLLQALEGISPELGPTLDTLQLDVADFATTIWQQMEELGMAPALQPTQGAMPAFASAFQRRAGGVLVASHLQSFLEVSYRVLRHLAQP
Serum chitotriosidase
  serum chitotriosidase levels: Parallel increases
